Among the data in patent US20240100170A1, “CYCLIC-AMP RESPONSE ELEMENT BINDING PROTEIN (CBP) AND/OR ADENOVIRAL E1A BINDING PROTEIN OF 300 KDA (P300) DEGRADATION COMPOUNDS AND METHODS OF USE” (CULLGEN (SHANGHAI), INC., priority 2020, published 2024) are IC50 and inhibition values, retold here.

Assay [1] has as its system LNCaP prostate cancer cell. In words: LNCaP cell viability (CellTiter-Glo). It is filed as cell-based. The note with it: Homo sapiens, 72 h; LNCaP cell viability, 3 days, CellTiter-Glo; Table 4. Summed up:
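LNCaP cells (5000/well, RPMI 1640 + 10% FBS, 37 °C) treated with compounds in 12-point 3-fold serial dilution for three days. Viability read by CellTiter-Glo luminescence, normalized to untreated cells; IC50 from least-squares nonlinear regression.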
On the technique in general: ATP-based viability assays read luminescence as a measure of living cells.

For the next assay, the target named is P300 (Homo sapiens, UniProt Q09472). Kind of assay: percentage of inhibition (degradation) of p300 at 10 nM, Tables 2-4. It is filed as cell-based. More on the design: LNCaP or 22RV1 cells that express CBP/P300 proteins were treated with GNE-781 or the bivalent compounds; endogenous in cells; host or cells: LNCaP or 22RV1 (not given). The settings on record: p300, 10 nM; Table 4; read-out: Degradation (10 nM). Summed up: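 Degradation was measured at 10 nM. Cells or tissue were lysed in RIPA with protease and phosphatase inhibitors for 30 min at 4 °C and cleared, and protein was quantified by BCA. Lysates were resolved by SDS-PAGE, detected by chemiluminescent immunoblot, and bands were quantified by densitometry.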
Sequence of P300 (Q09472 whole entry): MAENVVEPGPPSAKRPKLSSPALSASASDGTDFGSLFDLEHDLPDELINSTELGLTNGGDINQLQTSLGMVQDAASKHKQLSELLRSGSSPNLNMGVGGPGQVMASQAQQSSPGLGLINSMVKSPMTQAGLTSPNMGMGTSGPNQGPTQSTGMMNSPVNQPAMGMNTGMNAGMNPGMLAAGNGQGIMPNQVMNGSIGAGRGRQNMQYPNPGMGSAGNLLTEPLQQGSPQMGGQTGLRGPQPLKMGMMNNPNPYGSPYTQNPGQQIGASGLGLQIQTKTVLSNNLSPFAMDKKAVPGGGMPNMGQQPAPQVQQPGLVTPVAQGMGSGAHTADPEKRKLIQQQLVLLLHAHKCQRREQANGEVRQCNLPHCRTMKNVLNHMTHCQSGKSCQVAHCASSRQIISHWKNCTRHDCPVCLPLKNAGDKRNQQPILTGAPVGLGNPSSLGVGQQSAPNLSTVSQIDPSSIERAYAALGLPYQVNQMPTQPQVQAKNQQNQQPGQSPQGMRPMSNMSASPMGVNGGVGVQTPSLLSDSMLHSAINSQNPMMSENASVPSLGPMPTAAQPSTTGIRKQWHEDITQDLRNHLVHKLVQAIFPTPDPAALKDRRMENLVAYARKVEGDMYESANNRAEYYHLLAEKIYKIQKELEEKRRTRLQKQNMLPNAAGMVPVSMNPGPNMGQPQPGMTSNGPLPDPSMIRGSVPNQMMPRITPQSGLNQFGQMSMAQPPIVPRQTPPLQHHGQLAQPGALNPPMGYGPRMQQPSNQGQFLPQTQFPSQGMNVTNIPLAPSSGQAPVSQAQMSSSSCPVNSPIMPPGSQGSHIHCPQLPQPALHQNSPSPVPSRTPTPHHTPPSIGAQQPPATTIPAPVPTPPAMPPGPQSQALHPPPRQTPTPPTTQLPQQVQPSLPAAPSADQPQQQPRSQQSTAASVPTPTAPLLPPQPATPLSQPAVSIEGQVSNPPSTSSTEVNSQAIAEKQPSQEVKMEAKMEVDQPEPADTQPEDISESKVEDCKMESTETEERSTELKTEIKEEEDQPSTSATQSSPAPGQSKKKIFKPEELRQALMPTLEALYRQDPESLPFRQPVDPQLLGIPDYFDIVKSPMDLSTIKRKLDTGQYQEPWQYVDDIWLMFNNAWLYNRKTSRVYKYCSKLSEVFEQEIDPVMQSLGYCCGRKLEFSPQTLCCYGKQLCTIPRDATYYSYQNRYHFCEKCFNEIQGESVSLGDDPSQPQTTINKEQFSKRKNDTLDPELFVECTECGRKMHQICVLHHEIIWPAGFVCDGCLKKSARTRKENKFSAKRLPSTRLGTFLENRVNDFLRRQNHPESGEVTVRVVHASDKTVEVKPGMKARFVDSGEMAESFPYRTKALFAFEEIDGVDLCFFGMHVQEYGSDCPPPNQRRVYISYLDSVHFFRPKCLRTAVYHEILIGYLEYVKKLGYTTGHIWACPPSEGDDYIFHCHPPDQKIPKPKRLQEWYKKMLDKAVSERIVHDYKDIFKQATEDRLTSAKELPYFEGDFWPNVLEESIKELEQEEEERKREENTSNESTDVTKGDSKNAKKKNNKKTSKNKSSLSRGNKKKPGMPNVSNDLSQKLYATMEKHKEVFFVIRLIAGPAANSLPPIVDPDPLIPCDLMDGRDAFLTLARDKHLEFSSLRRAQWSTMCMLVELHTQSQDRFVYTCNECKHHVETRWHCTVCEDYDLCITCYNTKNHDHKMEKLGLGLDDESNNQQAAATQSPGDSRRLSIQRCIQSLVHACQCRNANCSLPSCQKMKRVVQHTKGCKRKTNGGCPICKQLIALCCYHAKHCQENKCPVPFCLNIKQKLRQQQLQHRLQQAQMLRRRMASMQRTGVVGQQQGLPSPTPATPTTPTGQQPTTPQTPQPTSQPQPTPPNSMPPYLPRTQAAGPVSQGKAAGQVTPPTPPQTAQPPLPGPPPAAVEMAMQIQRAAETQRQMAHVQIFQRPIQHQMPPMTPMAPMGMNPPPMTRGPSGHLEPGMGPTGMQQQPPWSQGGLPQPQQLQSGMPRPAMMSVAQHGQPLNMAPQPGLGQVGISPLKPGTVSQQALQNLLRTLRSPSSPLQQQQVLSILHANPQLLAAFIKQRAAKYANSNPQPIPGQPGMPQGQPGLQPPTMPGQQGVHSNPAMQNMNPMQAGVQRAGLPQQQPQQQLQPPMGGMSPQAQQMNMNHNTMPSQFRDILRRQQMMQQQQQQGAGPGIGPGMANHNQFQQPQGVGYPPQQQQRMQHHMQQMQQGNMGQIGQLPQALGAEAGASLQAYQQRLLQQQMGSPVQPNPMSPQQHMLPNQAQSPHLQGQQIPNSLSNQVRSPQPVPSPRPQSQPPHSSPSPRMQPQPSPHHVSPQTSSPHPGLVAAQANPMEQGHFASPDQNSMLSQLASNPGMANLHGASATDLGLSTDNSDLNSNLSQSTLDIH

pIC50: −log10 of the molar value.

As usually defined, the pIC50 is the negative decadic logarithm of the IC50, by convention in mol/L. High values mean a low IC50, low ones a high IC50. The compound `CC(=O)N1CCc2c(c(N3CCCc4cc(-c5cnn(C)c5)c(C(F)F)cc43)nn2C2CCN(C(=O)CCN3CCN(Cc4cccc5c4n(C)c(=O)n5C4CCC(=O)NC4=O)CC3)CC2)C1` (centres unmarked) [P-208, 3-(4-((4-(3-(4-(5-Acetyl-3-(7-(difluoromethyl)-6-(1-methyl-1H-pyrazol-4-yl)-3,4-dihydroquinolin-1(2H)-yl)-4,5,6,7-tetrahydro-1H-pyrazolo[4,3-c]pyridin-1-yl)piperidin-1-yl)-3-oxopropyl)piperazin-1-yl)methyl)-3-methyl-2-oxo-2,3-dihydro-1H-benzo[d]imidazol-1-yl)piperidine-2,6-dione] gave a pIC50 in assay [1] of 7.71. Also, the inhibition at 0.01 µM on P300 is > 80%.
The matching figures for `CC(=O)N1CCc2c(c(N3CCCc4cc(-c5cnn(C)c5)c(C(F)F)cc43)nn2C2CCN(C(=O)CCCN3CCC(C#Cc4ccc5c(c4)n(C)c(=O)n5C4CCC(=O)NC4=O)CC3)CC2)C1` (centres unmarked) [P-211, 3-(5-((1-(4-(4-(5-acetyl-3-(7-(difluoromethyl)-6-(1-methyl-1H-pyrazol-4-yl)-3,4-dihydroquinolin-1(2H)-yl)-4,5,6,7-tetrahydro-1H-pyrazolo[4,3-c]pyridin-1-yl)piperidin-1-yl)-4-oxobutyl)piperidin-4-yl)ethynyl)-3-methyl-2-oxo-2,3-dihydro-1H-benzo[d]imidazol-1-yl)piperidine-2,6-dione]: 8.46 and > 80%.
The compound `CC(=O)N1CCc2c(c(N3CCCc4cc(-c5cnn(C)c5)c(C(F)F)cc43)nn2C2CCN(C(=O)CCN3CCC(C#Cc4ccc5c(c4)n(C)c(=O)n5C4CCC(=O)NC4=O)CC3)CC2)C1` (centres unmarked) [P-212, 3-(5-((1-(3-(4-(5-acetyl-3-(7-(difluoromethyl)-6-(1-methyl-1H-pyrazol-4-yl)-3,4-dihydroquinolin-1(2H)-yl)-4,5,6,7-tetrahydro-1H-pyrazolo[4,3-c]pyridin-1-yl)piperidin-1-yl)-3-oxopropyl)piperidin-4-yl)ethynyl)-3-methyl-2-oxo-2,3-dihydro-1H-benzo[d]imidazol-1-yl)piperidine-2,6-dione] gave a pIC50 in assay [1] of 8.26. For the same compound, on P300, the inhibition at 0.01 µM was > 80%.
For `CC(=O)N1CCc2c(c(N3CCCc4cc(-c5cnn(C)c5)c(C(F)F)cc43)nn2C2CCN(C(=O)CCN3CCC(CNc4cccc5c4n(C)c(=O)n5C4CCC(=O)NC4=O)CC3)CC2)C1` (centres unmarked) [P-213, 3-(4-(((1-(3-(4-(5-Acetyl-3-(7-(difluoromethyl)-6-(1-methyl-1H-pyrazol-4-yl)-3,4-dihydroquinolin-1(2H)-yl)-4,5,6,7-tetrahydro-1H-pyrazolo[4,3-c]pyridin-1-yl)piperidin-1-yl)-3-oxopropyl)piperidin-4-yl)methyl)amino)-3-methyl-2-oxo-2,3-dihydro-1H-benzo[d]imidazol-1-yl)piperidine-2,6-dione], in that order: 7.01 and < 20%.
The matching figures for `CC(=O)N1CCc2c(c(N3CCCc4cc(-c5cnn(C)c5)c(C(F)F)cc43)nn2C2CCN(C(=O)CCCN3CCC(CNc4cccc5c4n(C)c(=O)n5C4CCC(=O)NC4=O)CC3)CC2)C1` (centres unmarked) [P-214, 3-(4-(((1-(4-(4-(5-Acetyl-3-(7-(difluoromethyl)-6-(1-methyl-1H-pyrazol-4-yl)-3,4-dihydroquinolin-1(2H)-yl)-4,5,6,7-tetrahydro-1H-pyrazolo[4,3-c]pyridin-1-yl)piperidin-1-yl)-4-oxobutyl)piperidin-4-yl)methyl)amino)-3-methyl-2-oxo-2,3-dihydro-1H-benzo[d]imidazol-1-yl)piperidine-2,6-dione]: 7.29 and 20 to 50%.
The matching figures for `CC(=O)N1CCc2c(c(N3CCCc4cc(-c5cnn(C)c5)c(C(F)F)cc43)nn2C2CCN(C(=O)CCCN3CCN(Cc4ccc5c(c4)n(C)c(=O)n5C4CCC(=O)NC4=O)CC3)CC2)C1` (centres unmarked) [P-215, 3-(5-((4-(4-(4-(5-Acetyl-3-(7-(difluoromethyl)-6-(1-methyl-1H-pyrazol-4-yl)-3,4-dihydroquinolin-1(2H)-yl)-4,5,6,7-tetrahydro-1H-pyrazolo[4,3-c]pyridin-1-yl)piperidin-1-yl)-4-oxobutyl)piperazin-1-yl)methyl)-3-methyl-2-oxo-2,3-dihydro-1H-benzo[d]imidazol-1-yl)piperidine-2,6-dione]: 7.48 and 20 to 50%.
Compound `CC(=O)N1CCc2c(c(N3CCCc4cc(-c5cnn(C)c5)c(C(F)F)cc43)nn2C2CCN(C(=O)CCN3CCN(Cc4ccc5c(c4)n(C)c(=O)n5C4CCC(=O)NC4=O)CC3)CC2)C1` (centres unmarked) [P-216, 3-(5-((4-(3-(4-(5-Acetyl-3-(7-(difluoromethyl)-6-(1-methyl-1H-pyrazol-4-yl)-3,4-dihydroquinolin-1(2H)-yl)-4,5,6,7-tetrahydro-1H-pyrazolo[4,3-c]pyridin-1-yl)piperidin-1-yl)-3-oxopropyl)piperazin-1-yl)methyl)-3-methyl-2-oxo-2,3-dihydro-1H-benzo[d]imidazol-1-yl)piperidine-2,6-dione] showed a pIC50 in assay [1] of 7.57. Moreover, on P300, the inhibition at 0.01 µM was 20 to 50%.
The matching figures for `CC(=O)N1CCc2c(c(N3CCCc4cc(-c5cnn(C)c5)c(C(F)F)cc43)nn2C2CCN(C(=O)CCCN3CCC(CNc4ccc5c(c4)n(C)c(=O)n5C4CCC(=O)NC4=O)CC3)CC2)C1` (centres unmarked) [P-217, 3-(5-(((1-(4-(4-(5-Acetyl-3-(7-(difluoromethyl)-6-(1-methyl-1H-pyrazol-4-yl)-3,4-dihydroquinolin-1(2H)-yl)-4,5,6,7-tetrahydro-1H-pyrazolo[4,3-c]pyridin-1-yl)piperidin-1-yl)-4-oxobutyl)piperidin-4-yl)methyl)amino)-3-methyl-2-oxo-2,3-dihydro-1H-benzo[d]imidazol-1-yl)piperidine-2,6-dione]: 7.67 and 50 to 80%.
For `CC(=O)N1CCc2c(c(N3CCCc4cc(-c5cnn(C)c5)c(C(F)F)cc43)nn2C2CCN(C(=O)CCN3CCC(CNc4ccc5c(c4)n(C)c(=O)n5C4CCC(=O)NC4=O)CC3)CC2)C1` (centres unmarked) [P-218, 3-(5-(((1-(3-(4-(5-Acetyl-3-(7-(difluoromethyl)-6-(1-methyl-1H-pyrazol-4-yl)-3,4-dihydroquinolin-1(2H)-yl)-4,5,6,7-tetrahydro-1H-pyrazolo[4,3-c]pyridin-1-yl)piperidin-1-yl)-3-oxopropyl)piperidin-4-yl)methyl)amino)-3-methyl-2-oxo-2,3-dihydro-1H-benzo[d]imidazol-1-yl)piperidine-2,6-dione], in that order: 7.73 and > 80%.
In assay [1], `CC(=O)N1CCc2c(c(N3CCCc4cc(-c5cnn(C)c5)c(C(F)F)cc43)nn2C2CCN(C(=O)CN3CCN(CC#Cc4ccc5c(c4)n(C)c(=O)n5C4CCC(=O)NC4=O)CC3)CC2)C1` (centres unmarked) [P-219, 3-(5-(3-(4-(2-(4-(5-Acetyl-3-(7-(difluoromethyl)-6-(1-methyl-1H-pyrazol-4-yl)-3,4-dihydroquinolin-1(2H)-yl)-4,5,6,7-tetrahydro-1H-pyrazolo[4,3-c]pyridin-1-yl)piperidin-1-yl)-2-oxoethyl)piperazin-1-yl)prop-1-yn-1-yl)-3-methyl-2-oxo-2,3-dihydro-1H-benzo[d]imidazol-1-yl)piperidine-2,6-dione] showed a pIC50 of 7.19. In addition, the inhibition at 0.01 µM at P300 lay within 20 to 50%.
